Assay results reported in patent US6537566B1, “Compositions and methods for the non-invasive treatment of uterine fibroid cells” (priority 1999, dated 2003).
Read-outs that look alike come from different tables or passages of the source.

Assays:
Assay type in all cases: cell-based, human
[1] = test system: uterine fibroid leiomyoma cells; test: DNA content experiment similar to Example 1, GF109203x versus α-tocopherol succinate, 6 days (FIGS. 5A & 5B); details: comparison of FIG. 5A with 5B; DNA content at time=6 days
Description: (§1) Method: Fibroid tissue was obtained from patients undergoing hysterectomy for symptomatic leiomyomata, and leiomyoma cells were isolated from the tissue using standard techniques. Leiomyoma cells in 5% fetal calf serum were plated at 22,000 cells/well in 12-well plate. Cells were allowed to acclimate and grow for 24 hours before the start of the experiment. At time=0, the DNA content of the wells was determined (32+/−0.6 ng/well), and the cells were treated with different concentrations of the FGI agents as shown in FIG. 3A in 5% fetal calf serum. Controls received fetal calf serum alone. After treatment at time=4 days, the DNA content of each well was determined using standard methods. All points were determined in triplicate and are the mean +/− standard error.
Clearly from Examples 1 & 2, tocopherol related substrates are potential FGI agents. This was expected because of tocopherol's effect on the PKC pathway. However, non-tocopherol related substrates that can appropriate appropriately effect the PKC pathway were also identified as potential FGI agents. Therefore, GF109203x, a protein kinase C inhibitor, was tested in an experiment similar to that of Example 1 to determine the efficacy of a non-tocopherol related, identified potential FGI agent to inhibit fibroid leiomyoma cell proliferation. Here, the DNA content of treated wells was determined at time=6 days. […]

[2] = test system: uterine fibroid leiomyoma cells; test: Growth of leiomyoma cells with low added concentrations over background tocopherols (Example 2); details: added concentrations ranging from 1 to 5 μM over background tocopherols (about 10 μM); 4 days
Description: as §1
Method: See Example 1 above generally. Vitamin C, an antioxidant that is not an identified potential FGI agent, was used as an experimental substrate control.
Results: The results are illustrated in FIGS. 4A and 4B. The DNA concentration of controls at time=4 days was 99+/−0.2 ng/well (the “0” concentration in FIGS. 4A & 4B). Growth of uterine fibroid cells clearly occurred in the presence of a background concentration of tocopherols. […] However, upon the addition of 10 μM over back ground tocopherol treated wells began to show detectable inhibition of the growth of uterine fibroid cell populations.

[3] = test system: uterine fibroid leiomyoma cells; test: DNA content assay of growing leiomyoma cells treated with FGI agents (Example 1, 4 days); details: for IC50: read-out: IC50 (= 80 ng) Concentration; for NG0 (= 32 ng) Concentration (no net growth): concentration giving the time=0 DNA content of 32 ng/well
Source text: A DNA assay was used for determining the effect of potential FGI agents on the growth of uterine fibroid leiomyoma cells. The assay determined the effect of various concentrations of an individual FGI agent on the accumulation of DNA in an actively growing population of uterine fibroid leiomyoma cells. The accumulation of DNA in treated cell populations relative to untreated controls was an indication the efficacy of the FGI agent for inhibiting fibroid cell proliferation.
as §1
The significance of the IC50 point was that it represented an estimated point relative to which a substrate may in part be gauged as an effective FGI agent. The NG0 (no net growth) was the point on the graph corresponding to the time=0 or starting DNA content of the wells.

[4] = test system: uterine fibroid leiomyoma cells; test: Separate DNA content experiment under conditions similar to Example 1, read at 6 days (FIG. 3B); details: DNA content determined at time=6 days
Description: as §1
FIG. 3B is a graph of the results for α-tocopherol succinate from a separate experiment under conditions similar to Example 1. Here, the DNA content of treated wells was determined at time=6 days. The area under the horizontal line indicates the concentration at which net cell death occurred in this experiment (˜38 μM).

[5] = increase in DNA content 50% of that of control wells, time=4 days, 5% fetal calf serum, N/A = condition not attained
[6] = time=4 days, 5% fetal calf serum, N/A = condition not attained
[7] = Homo sapiens, 96 h, increase in DNA content 50% of that of control wells, time=4 days, 5% fetal calf serum, N/A = condition not attained

| SMILES | growth of uterine fibroid cell populations at low added concentrations [2] | NG0 (= 32 ng) Concentration (no net growth) [3, 6] [µM] | also measured |
| --- | --- | --- | --- |
| CN(C)CCCn1cc(C2=C(c3c[nH]c4ccccc34)C(=O)NC2=O)c2ccccc21 [GF109203x] | – | – | efficiency at inhibiting fibroid leiomyoma cell proliferation relative to α-tocopherol succinate [1]: ~5 time |
| Cc1cc(O)c(C)c2c1O[C@](C)(CCC[C@H](C)CCC[C@H](C)CCCC(C)C)CC2 [β-Tocopherol] | substantially uninhibited | – | – |
| Cc1c(C)c2c(c(C)c1O)CC[C@@](C)(CCC[C@H](C)CCC[C@H](C)CCCC(C)C)O2 [α-Tocopherol] | substantially uninhibited | – | IC50 [3, 5]: 27 µM |
| Cc1c(C)c2c(c(C)c1OC(=O)CCC(=O)O)CC[C@@](C)(CCC[C@H](C)CCC[C@H](C)CCCC(C)C)O2 [α-Tocopherol succinate] | substantially uninhibited | 38 | IC50 [3, 5]: 22 µM; concentration at which net cell death occurred [4]: ~38 µM |
| CN(CCOc1ccc(CC2SC(=O)NC2=O)cc1)c1ccccn1 (centres unmarked) [Rosiglitazone] | – | 90 | IC50 ([3]; Homo sapiens, 96 h): 40 µM |
| CCc1ccc(CCOc2ccc(CC3SC(=O)NC3=O)cc2)nc1 (centres unmarked) [Pioglitazone] | – | 88 | IC50 [3, 7]: 40 µM |
| Cc1c(C)c2c(c(C)c1O)CCC(C)(COc1ccc(CC3SC(=O)NC3=O)cc1)O2 (centres unmarked) [Troglitazone] | – | 50 | IC50 [3, 7]: 12 µM |
